System: conscious rat
Assay: Antihypertensive evaluation (AHP3): aortic blood pressure and heart rate from conscious rats
Format: in vivo
Details: hour 1
Text: This test procedure is described in the following paragraphs.
A Method for the Direct Monitoring of Aortic Blood Pressure and Heart Rate from Conscious Rats
The continuous monitoring of pulsatile blood pressure (BP) from unrestrained conscious rats surgically equipped with polyethylene cannulas was accomplished by means of a computer assisted data capture scheme (CADCS). The basic elements of the methodology are the cannulation procedure and the CADCS.
Cannulation Procedure: Rats were anesthetized with Telazol (1:1 tiletamine HCl and zolazepam HCl); 20-40 mg/kg IM and the descending aorta exposed via a midline incision. Cannulas fabricated from polyethylene tubing were inserted into the aorta via an undersized puncture hole below the renal arteries. The puncture hole was made by a 23 G disposable needle with a section of the aorta clamped off above and below the puncture site. The cannulas, consisting of a PE100 (0.86 mm ID) body and a PE50 (0.58 mm ID) tip, were attached to a trocar, inserted through the psoas muscle, and passed subcutaneously along the midline of the back and externalized between the ears. […]
CADCS: The pulsatile blood pressure and heart rate of each of 32 rats was monitored every minute by means of two in-laboratory microcomputers communicating directly with a data concentrator computer. […]

| SMILES | MAP (mean arterial pressure) decrease (30 mg/kg, ↓ = decrease) | HR (heart rate) increase (10 mg/kg, ↑ = increase) |
| --- | --- | --- |
| OC[C@H]1O[C@@H](n2cnc3c(NC4Cc5cccc6cccc4c56)ncnc32)[C@H](O)[C@@H]1O (some centres unmarked) [Example 1, N^6 -Acenaphthyladenosine] | 30% | – |
| OC[C@H]1O[C@@H](n2cnc3c(NCC4=Cc5cccc6cccc4c56)ncnc32)[C@H](O)[C@@H]1O [Example 2, N^6-(1-acenaphthylenylmethyl)adenosine] | – | 0% |

Reference: patent US4673670A, “N^6 -acenaphthyl adenosines and analogs thereof” (Warner-Lambert Company, priority 1986, dated 1987)
